In patent US20040082773A1, “Modified PAR receptors, their preparation and their uses for selecting compounds which modulate PAR activity” (Pfizer Inc., priority 2002, published 2004):
Where no end group is shown, it is not given here.

How the values were obtained:
PAR-2Mut2 receptor [1] = target: T1, PAR-2Mut2 receptor (Homo sapiens, UniProt P55085); experiment: Calcium release direct measurement (FLIPR), CHO-NFAT-PAR-2Mut2 cells; type: cell-based
T1 construct: indeed comprising amino acids 43 to 397 of the precursor of human PAR-2; expressed in transfected cells
T1 sequence (P55085 43-397): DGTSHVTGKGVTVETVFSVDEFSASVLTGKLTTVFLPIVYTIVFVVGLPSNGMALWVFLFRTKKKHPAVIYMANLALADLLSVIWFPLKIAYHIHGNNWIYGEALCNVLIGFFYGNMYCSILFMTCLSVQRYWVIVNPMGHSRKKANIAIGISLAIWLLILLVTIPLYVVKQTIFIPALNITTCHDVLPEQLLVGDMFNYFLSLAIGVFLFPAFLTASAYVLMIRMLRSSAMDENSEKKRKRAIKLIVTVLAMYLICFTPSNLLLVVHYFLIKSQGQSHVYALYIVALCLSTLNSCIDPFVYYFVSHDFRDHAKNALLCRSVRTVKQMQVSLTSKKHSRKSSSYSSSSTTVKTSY
Protocol: (§1) The cells used for these tests were: CHO-NFAT-PAR-2-MUT2, CHO-NFAT-PAR-2-MUT3, CHO-NFAT-PAR2-WT and CHO-NFAT-WT.
(§2) The day before the experiment, the cells, were seeded into 384 well-plate in a medium DMEM glutamax (ref: 61965-026 Invitrogen, fetal calf serum 10% (ref: 10270106 Invitrogen), gentamycin 50 mg/ml 0.25% (ref: 15750-037 Invitrogen) at 25000 cells/well/50 μL.
(§3) The day of the experiment, the medium was discarded (by turning the plate). 50 μl of HBSS (Invitrogen réf: 14025.050), hepes (Invitrogen ref: 15630-05620 mM) were added to each well, HBSS was then discarded by turning the plate. 10 ml of Calcium kit loading solution and 10 ml HBSS, hepes 20 mM and 200 μl probenecid 250 μM were mixed and then 30 μl of this solution was added per well; plates were then incubated during 2 hours at 37° C. 4% CO2. 1.2 μl of a 250 μM compound in 25% DMSO to be tested and 3.8 μl HBSS, hepes 20 mM were added (on the Minitrak Va., Packard), the plates are transferred to the FLIPR and 25 μl 7.2 μM SLIGRL were added.
(§4) The dye is excited with the 488 nm excitation line of the argon laser and emits at 550 nm. The FLIPR quantifies the release of intracellular calcium in real time, the fluorescence is measured during 90 seconds.

PAR-2Mut3 receptor = target: T2, PAR-2Mut3 receptor (Homo sapiens, UniProt P55085); experiment: Calcium release direct measurement (FLIPR), CHO-NFAT-PAR2-Mut3 cells; type: cell-based
T2 construct: indeed comprising amino acids 57 to 397 of the precursor of human PAR-2; expressed in transfected cells
T2 sequence (P55085 57-397): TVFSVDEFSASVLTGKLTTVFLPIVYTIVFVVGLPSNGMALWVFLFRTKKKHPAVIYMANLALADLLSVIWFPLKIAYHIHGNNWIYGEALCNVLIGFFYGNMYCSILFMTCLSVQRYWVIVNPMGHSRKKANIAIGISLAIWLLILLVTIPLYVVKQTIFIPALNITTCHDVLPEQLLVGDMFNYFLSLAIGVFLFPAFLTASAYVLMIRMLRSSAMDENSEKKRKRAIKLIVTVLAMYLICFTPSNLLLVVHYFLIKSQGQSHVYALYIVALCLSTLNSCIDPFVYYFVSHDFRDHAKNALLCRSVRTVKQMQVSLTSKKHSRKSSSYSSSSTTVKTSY
Protocol: as §1, §2, §3, §4

CHO-NFAT cells [2] = experiment: Calcium release direct measurement (FLIPR), CHO-NFAT control cells; type: cell-based
Protocol: as §1
The day before the experiment, cells were seeded into 384 well-plate in a complete medium at 25000 cells/well/50 μL.
The day after, the medium was discarded (by turning the plate). 50 μl of HBSS, hepes 20 mM were added to each well, HBSS was then discarded by turning the plate. This was done twice.
10 ml of Calcium kit loading solution (solution prepared as described above) and 10 ml HBSS, hepes 20 mM and 200 μl probenecid 250 μM were mixed, and 30 μl of this solution per well were added, plates were incubated during 2 hours at 37° C. 5% CO2.
1.2 μl of compound to be tested (250 μM, 25% DMSO) and 3.8 μl HBSS, hepes 20 mM were added (on the Minitrak Va.). 25 μl 72 nM Trypsin was then added using the FLIPR.
The fluorescence was measured on the FLIPR as specified above.

PAR-2Mut2 receptor [3] = target: T1, PAR-2Mut2 receptor; experiment: Beta-lactamase reporter assay, CHO-NFAT-PAR-2Mut2 cells; type: cell-based; settings: FIG. 6
Protocol: In a 96-well or 384-well microplate, […] the wild-type PAR-2 receptor (CHO-NFAT-PAR-2WT) or the CHO-NFAT cells expressing the PAR-2Mut2 receptor (CHO-NFAT-PAR-2mut2), in a proportion of 4×10^4 for a 96-well plate or 1×10^4 for a 384-well plate, for 4 hours, at 37° C., in an atmosphere containing 5% CO2 and in a modified Dulbecco medium (Lifetech, Gaithersburg, Md.) containing 100 μg/ml of gentamycin. The cells were placed in the dark for 1 hour at ambient temperature with 12 μM of CCF4-AM (Aurora Biosciences, San Diego, Calif.). The fluorescence was measured with a Fluostar fluorimeter (BMG, Germany). The excitation occurs at 405 nm and the emission is recorded at both 460 and 535 nm. The fluorescence ratio (460 nm/535 nm) is estimated after elimination of the background noise (medium without cells). The ED50 is considered to be the concentration of SLIGRL-NH2 necessary to achieve 50% of the maximum fluorescence ratio.
The CHO-NFAT-beta-lactamase cells stimulated with SLIGRL-NH2 in the medium mentioned above (4×10^4 cells/well) were used as control. All the reagents were added with the activating agent (chemical or referenced compounds), unless otherwise indicated.

CHO-NFAT cells [4] = experiment: Beta-lactamase reporter assay, CHO-NFAT control cells; type: cell-based
[5] = target: T3, wild-type PAR-2 receptor expressed on CHO-NFAT cells (CHO-NFAT-PAR-2WT) (human, UniProt P55085 37-397); experiment: cell-based or functional assay
T3 sequence (looked up): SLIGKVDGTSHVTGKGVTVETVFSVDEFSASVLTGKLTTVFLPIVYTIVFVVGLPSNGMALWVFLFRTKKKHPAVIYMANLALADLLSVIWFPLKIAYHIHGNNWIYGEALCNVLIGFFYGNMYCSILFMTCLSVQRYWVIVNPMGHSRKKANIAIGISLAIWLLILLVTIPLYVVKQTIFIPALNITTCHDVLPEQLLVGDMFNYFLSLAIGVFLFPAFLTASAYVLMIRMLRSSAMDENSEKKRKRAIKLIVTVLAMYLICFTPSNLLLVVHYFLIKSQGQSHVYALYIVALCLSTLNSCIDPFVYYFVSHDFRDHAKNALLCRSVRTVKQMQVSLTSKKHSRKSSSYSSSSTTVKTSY

[6] = target: T4, truncated PAR-2 receptor PAR-2Mut2 expressed on CHO-NFAT cells (CHO-NFAT-PAR-2Mut2) (human, UniProt P55085 43-397); experiment: cell-based or functional assay
T4 sequence: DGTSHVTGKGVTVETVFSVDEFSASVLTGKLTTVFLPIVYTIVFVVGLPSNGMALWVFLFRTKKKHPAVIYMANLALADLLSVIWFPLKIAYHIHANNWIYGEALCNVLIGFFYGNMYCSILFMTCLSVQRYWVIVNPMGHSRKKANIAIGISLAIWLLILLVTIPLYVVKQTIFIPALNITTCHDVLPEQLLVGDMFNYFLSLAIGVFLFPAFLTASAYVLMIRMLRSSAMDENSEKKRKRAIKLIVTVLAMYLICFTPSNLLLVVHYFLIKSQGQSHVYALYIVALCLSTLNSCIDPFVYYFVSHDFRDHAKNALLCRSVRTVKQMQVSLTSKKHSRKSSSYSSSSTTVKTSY

SLIGRL [SLIGRL-NH2, synthetic ligand (Neosystème)]
Fluorescence after stimulation, compared with CHO-PAR2-WT cells (PAR-2Mut2 receptor [1]; CHO-NFAT-PAR-2Mut2 cells, SLIGRL-NH2 0.1 μM to 100 μM): higher

trypsin
Activation of cells by trypsin (FLIPR calcium release) (PAR-2Mut2 receptor [1]; CHO-NFAT-PAR2-MUT2 cells): not activated
Activation of cells by trypsin (FLIPR calcium release) (PAR-2Mut3 receptor): not activated
Activation of cells by trypsin (FLIPR calcium release) (CHO-NFAT cells [2]): not activated
Activation of cells by trypsin (beta-lactamase fluorescence) (PAR-2Mut2 receptor [3]): not activated
Activation of cells by trypsin (beta-lactamase fluorescence) (CHO-NFAT cells [4]): not activated

SLIGRL-NH2 [SLIGRL-NH2 synthetic ligand]
ED50 (beta-lactamase reporter, fluorescence ratio 460 nm/535 nM) [5]: 10 µM
ED50 (beta-lactamase reporter, fluorescence ratio 460 nm/535 nM) [6]: 0.2 µM
